Laboratory results published in article doi:10.1101/2023.11.24.568596v1 (biorxiv, 2023).

What was measured:
Conditions in all cases: binder
NEK7 = NEK7 (Homo sapiens, UniProt Q8TDX7)
BMPR2 = molecular target: T1, BMPR2 (Homo sapiens, UniProt Q13873)
T1 sequence (Q13873 1-1038): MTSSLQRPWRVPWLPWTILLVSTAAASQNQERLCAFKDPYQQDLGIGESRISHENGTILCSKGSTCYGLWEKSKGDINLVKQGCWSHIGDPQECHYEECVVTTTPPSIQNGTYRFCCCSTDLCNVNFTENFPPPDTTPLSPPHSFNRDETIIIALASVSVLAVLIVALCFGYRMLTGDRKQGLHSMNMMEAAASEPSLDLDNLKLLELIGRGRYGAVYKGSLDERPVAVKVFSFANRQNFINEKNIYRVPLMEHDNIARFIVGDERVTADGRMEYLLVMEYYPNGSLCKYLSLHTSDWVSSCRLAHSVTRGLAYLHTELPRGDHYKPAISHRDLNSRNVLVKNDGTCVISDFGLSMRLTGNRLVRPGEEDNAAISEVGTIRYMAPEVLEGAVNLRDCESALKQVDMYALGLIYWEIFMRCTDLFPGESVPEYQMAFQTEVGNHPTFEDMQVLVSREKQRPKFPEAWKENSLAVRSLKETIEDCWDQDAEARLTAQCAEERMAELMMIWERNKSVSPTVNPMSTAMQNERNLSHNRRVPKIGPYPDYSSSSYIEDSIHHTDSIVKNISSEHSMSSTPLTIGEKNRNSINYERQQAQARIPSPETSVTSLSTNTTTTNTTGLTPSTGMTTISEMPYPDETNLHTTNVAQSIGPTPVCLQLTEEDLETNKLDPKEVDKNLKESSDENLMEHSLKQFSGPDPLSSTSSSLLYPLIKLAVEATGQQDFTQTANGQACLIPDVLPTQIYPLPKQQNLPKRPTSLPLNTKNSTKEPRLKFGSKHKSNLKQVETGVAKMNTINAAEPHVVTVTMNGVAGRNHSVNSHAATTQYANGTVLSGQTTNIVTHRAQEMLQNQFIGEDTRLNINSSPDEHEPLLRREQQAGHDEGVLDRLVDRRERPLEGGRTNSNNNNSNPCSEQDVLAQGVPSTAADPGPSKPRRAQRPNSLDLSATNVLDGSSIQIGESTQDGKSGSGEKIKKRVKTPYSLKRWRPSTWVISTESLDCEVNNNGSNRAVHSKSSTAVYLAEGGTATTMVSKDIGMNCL

FES = FES (Homo sapiens, UniProt P07332)
JNK3 = JNK3 (Homo sapiens, UniProt P53779)
PIM1 = PIM1 (Homo sapiens, UniProt P11309)
BIKE = BIKE (Homo sapiens, UniProt Q9NSY1)
MARK4 = molecular target: T2, MARK4 (Homo sapiens, UniProt Q96L34)
T2 sequence (Q96L34 1-752): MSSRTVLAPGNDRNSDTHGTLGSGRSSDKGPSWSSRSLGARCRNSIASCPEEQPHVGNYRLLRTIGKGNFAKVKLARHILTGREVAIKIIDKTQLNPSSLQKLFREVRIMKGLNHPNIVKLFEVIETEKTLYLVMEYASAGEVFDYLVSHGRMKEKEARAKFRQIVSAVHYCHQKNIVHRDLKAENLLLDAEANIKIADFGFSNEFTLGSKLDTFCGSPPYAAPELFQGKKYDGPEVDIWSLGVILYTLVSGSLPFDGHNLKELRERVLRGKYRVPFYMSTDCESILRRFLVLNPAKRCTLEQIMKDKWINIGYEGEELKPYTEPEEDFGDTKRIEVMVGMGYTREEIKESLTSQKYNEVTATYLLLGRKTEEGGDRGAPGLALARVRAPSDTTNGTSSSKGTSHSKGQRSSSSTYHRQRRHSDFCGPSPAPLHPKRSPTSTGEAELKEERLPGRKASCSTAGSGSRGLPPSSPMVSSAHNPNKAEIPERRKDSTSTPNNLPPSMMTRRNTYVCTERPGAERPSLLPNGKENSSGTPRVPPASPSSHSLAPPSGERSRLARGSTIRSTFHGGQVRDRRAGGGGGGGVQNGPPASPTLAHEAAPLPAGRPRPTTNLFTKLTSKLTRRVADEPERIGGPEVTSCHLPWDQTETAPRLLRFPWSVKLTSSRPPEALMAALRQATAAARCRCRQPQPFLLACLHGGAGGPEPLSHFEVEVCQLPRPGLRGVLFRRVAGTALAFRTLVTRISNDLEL

MARK3 = MARK3 (Homo sapiens, UniProt P27448)
FGFR2 = FGFR2 (Homo sapiens, UniProt P21802)
Chain of FGFR2 (P21802 whole entry): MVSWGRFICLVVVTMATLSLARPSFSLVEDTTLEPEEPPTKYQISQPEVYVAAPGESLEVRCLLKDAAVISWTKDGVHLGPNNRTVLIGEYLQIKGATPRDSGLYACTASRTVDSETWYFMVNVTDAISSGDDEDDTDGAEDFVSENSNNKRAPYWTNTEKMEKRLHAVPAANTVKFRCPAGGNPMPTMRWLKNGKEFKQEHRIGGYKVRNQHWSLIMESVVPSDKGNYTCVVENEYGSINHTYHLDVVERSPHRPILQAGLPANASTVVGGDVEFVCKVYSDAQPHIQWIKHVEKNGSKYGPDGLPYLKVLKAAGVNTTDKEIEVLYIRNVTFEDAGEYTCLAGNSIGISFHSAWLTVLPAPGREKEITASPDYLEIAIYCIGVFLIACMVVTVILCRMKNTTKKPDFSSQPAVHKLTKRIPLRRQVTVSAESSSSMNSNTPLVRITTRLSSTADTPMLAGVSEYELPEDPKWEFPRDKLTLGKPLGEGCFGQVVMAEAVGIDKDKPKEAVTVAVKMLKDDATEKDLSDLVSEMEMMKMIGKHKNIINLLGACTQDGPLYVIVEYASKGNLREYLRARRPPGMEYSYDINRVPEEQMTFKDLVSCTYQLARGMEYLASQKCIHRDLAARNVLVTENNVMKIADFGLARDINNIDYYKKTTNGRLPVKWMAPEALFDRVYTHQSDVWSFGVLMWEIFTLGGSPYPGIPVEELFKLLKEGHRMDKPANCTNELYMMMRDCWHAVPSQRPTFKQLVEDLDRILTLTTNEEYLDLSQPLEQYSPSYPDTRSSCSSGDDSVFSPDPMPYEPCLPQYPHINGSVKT

Chain of JNK3 (P53779 whole entry): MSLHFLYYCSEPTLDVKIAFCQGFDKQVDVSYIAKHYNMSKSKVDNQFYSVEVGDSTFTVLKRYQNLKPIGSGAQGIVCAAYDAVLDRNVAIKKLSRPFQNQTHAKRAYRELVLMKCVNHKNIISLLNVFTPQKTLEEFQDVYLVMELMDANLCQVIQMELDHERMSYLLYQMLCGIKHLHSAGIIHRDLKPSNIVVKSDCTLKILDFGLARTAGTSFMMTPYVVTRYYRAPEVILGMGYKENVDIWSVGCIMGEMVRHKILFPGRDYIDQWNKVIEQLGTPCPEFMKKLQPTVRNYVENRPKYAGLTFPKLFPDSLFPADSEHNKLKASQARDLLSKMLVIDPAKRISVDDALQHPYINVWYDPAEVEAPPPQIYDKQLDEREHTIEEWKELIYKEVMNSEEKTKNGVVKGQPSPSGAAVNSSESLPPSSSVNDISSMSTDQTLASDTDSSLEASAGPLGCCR
Chain of BIKE (Q9NSY1 whole entry): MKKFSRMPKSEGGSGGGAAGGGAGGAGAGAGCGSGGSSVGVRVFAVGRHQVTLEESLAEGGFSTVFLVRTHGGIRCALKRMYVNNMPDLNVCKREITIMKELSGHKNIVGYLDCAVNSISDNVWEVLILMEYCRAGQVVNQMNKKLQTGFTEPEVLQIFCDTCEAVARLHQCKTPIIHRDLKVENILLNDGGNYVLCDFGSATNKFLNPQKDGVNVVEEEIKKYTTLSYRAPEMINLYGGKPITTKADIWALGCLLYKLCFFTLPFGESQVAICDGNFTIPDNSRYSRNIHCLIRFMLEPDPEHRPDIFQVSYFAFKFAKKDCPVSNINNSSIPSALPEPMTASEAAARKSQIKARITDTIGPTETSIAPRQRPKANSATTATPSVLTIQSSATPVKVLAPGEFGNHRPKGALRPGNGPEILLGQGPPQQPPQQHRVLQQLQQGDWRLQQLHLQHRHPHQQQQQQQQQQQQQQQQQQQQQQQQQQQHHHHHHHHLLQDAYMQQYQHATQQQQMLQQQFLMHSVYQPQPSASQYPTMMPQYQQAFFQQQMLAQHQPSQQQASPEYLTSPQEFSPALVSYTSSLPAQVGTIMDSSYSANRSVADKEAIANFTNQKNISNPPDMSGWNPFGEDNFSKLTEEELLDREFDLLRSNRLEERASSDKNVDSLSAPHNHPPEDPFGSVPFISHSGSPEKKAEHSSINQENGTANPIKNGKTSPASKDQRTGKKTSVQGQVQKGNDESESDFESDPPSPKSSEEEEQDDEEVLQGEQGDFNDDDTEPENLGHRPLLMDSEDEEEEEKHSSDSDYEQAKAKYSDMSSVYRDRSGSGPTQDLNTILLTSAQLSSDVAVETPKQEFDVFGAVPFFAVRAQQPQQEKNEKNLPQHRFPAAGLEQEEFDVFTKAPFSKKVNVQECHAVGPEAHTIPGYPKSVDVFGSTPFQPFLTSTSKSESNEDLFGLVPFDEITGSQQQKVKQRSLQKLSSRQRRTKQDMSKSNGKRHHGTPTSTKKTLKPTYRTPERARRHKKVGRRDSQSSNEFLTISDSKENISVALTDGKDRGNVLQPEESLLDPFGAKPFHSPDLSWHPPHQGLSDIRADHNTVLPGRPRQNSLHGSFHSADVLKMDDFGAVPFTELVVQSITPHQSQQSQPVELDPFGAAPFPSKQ
Chain of FES (P07332 whole entry): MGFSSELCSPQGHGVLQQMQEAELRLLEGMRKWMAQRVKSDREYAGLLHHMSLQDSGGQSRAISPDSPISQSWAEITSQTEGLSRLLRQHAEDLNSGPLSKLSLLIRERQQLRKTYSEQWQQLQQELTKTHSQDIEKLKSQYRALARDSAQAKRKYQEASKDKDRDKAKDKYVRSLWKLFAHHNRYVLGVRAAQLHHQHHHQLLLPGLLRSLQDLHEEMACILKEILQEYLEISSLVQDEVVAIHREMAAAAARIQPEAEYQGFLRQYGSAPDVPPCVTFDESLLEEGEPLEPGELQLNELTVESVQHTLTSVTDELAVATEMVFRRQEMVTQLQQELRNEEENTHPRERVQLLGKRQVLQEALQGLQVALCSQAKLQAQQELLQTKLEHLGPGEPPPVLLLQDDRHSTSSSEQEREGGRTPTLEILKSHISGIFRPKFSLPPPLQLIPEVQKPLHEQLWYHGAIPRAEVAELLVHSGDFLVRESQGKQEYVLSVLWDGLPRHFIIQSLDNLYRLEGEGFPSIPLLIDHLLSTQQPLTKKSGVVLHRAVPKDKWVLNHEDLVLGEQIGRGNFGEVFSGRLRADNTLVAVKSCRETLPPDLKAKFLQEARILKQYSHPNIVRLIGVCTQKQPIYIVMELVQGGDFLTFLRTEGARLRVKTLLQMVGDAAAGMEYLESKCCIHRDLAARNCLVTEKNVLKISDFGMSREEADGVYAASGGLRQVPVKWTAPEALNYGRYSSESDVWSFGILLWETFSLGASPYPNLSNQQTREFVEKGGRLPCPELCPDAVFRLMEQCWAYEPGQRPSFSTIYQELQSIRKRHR
Chain of MARK3 (P27448 whole entry): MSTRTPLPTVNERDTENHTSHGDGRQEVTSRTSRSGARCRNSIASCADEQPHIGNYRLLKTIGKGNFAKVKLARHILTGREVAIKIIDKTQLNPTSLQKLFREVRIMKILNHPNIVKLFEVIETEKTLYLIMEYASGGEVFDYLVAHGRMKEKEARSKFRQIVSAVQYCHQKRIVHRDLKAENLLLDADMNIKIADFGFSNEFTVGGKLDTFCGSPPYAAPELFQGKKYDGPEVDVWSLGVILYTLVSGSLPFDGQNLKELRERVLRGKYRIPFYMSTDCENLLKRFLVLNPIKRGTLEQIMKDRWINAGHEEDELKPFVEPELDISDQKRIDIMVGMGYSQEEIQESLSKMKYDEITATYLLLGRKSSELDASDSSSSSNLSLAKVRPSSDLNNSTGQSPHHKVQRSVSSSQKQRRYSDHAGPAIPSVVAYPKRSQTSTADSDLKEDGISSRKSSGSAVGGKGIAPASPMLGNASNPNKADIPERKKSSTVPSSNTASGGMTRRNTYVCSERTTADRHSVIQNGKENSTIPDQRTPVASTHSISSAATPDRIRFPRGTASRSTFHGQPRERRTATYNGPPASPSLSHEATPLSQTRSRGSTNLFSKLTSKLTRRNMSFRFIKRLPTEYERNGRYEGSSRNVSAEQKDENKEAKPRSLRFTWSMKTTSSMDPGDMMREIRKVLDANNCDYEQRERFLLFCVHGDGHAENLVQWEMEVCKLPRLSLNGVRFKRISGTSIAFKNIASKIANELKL
Chain of NEK7 (Q8TDX7 whole entry): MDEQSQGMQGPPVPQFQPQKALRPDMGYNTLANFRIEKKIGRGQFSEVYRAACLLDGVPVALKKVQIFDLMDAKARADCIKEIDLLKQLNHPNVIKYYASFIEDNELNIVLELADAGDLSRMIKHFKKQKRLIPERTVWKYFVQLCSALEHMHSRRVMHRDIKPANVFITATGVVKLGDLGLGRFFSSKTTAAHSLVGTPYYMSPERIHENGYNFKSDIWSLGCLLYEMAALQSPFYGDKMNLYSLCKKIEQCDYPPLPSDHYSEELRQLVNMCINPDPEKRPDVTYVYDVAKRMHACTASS
Chain of PIM1 (P11309 whole entry): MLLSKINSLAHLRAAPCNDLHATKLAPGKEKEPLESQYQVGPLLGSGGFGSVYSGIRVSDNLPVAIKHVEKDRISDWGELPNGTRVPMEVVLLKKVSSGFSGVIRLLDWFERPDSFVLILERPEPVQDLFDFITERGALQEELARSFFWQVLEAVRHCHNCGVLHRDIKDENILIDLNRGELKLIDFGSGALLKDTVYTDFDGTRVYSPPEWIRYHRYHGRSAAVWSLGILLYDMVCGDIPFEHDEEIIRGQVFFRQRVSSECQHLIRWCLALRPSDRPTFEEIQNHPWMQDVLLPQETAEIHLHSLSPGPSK

Compound: Cc1cccc(-c2ccc(-c3cc4cnc(NCCCc5ccc(N)cc5)nc4n(CCCCN)c3=O)c(Cl)c2)n1 [compound 25, 8-(4-Aminobutyl)-2-((3-(4-aminophenyl)propyl)amino)-6-(2-chloro-4-(6-methylpyridin-2-yl)phenyl)pyrido[2,3-d]pyrimidin-7(8H)-one]
- ΔTm 25 (NEK7): -0.5 °C
- ΔTm 25 (BMPR2): -0.2 °C
- ΔTm 25 (FES): 5.9 °C
- ΔTm 25 (JNK3): 3.2 °C
- ΔTm 25 (PIM1): 0.3 °C
- ΔTm 25 (BIKE): 1.8 °C
- ΔTm 25 (MARK4): 5.8 °C
- ΔTm 25 (MARK3): 8.6 °C
- ΔTm 25 (FGFR2): 1.7 °C

Compound: CNc1ncc2cc(-c3ccc(-c4cccc(C)n4)cc3Cl)c(=O)n(C[C@H]3CC[C@H](N)CC3)c2n1 [compound 23, 23]
- ΔTm 23 (NEK7): -0.3 °C
- ΔTm 23 (BMPR2): -0.7 °C
- ΔTm 23 (FES): 5.5 °C
- ΔTm 23 (JNK3): 1.3 °C
- ΔTm 23 (PIM1): -0.7 °C
- ΔTm 23 (BIKE): 6.9 °C
- ΔTm 23 (MARK4): 12.7 °C
- ΔTm 23 (MARK3): 10.4 °C
- ΔTm 23 (FGFR2): 2.9 °C

Compound: CNc1ncc2cc(-c3ccc(-c4cccc(C)n4)cc3Cl)c(=O)n(CCCCN)c2n1 [compound 20, MRLW5]
- ΔTm MRLW5 (20) (NEK7): -0.1 °C
- ΔTm MRLW5 (20) (BMPR2): -0.1 °C
- ΔTm MRLW5 (20) (FES): 5.9 °C
- ΔTm MRLW5 (20) (JNK3): 1.3 °C
- ΔTm MRLW5 (20) (PIM1): -0.1 °C
- ΔTm MRLW5 (20) (BIKE): 3.7 °C
- ΔTm MRLW5 (20) (MARK4): 8.2 °C
- ΔTm MRLW5 (20) (MARK3): 9.3 °C
- ΔTm MRLW5 (20) (FGFR2): 1.9 °C

Compound: CNc1ncc2cc(-c3ccc(-c4cccc(C)n4)cc3Cl)c(=O)n(CCC3CCNCC3)c2n1 [compound 22, 6-(2-Chloro-4-(6-methylpyridin-2-yl)phenyl)-2-(methylamino)-8-(2-(piperidin-4-yl)ethyl)pyrido[2,3-d]pyrimidin-7(8H)-one]
- ΔTm 22 (NEK7): 0.2 °C
- ΔTm 22 (BMPR2): -0.3 °C
- ΔTm 22 (FES): 5.4 °C
- ΔTm 22 (JNK3): 3.3 °C
- ΔTm 22 (PIM1): -0.4 °C
- ΔTm 22 (BIKE): 7.1 °C
- ΔTm 22 (MARK4): 5.8 °C
- ΔTm 22 (MARK3): 8.8 °C
- ΔTm 22 (FGFR2): 3.9 °C

Compound: Cc1cccc(-c2ccc(-c3cc4cnc(NC(CO)CO)nc4n(CCCCN)c3=O)c(Cl)c2)n1 [compound 24, 8-(4-Aminobutyl)-6-(2-chloro-4-(6-methylpyridin-2-yl)phenyl)-2-((1,3-dihydroxypropan-2-yl)amino)pyrido[2,3-d]pyrimidin-7(8H)-one]
- ΔTm MR24 (24) (NEK7): -0.9 °C
- ΔTm MR24 (24) (BMPR2): -0.1 °C
- ΔTm MR24 (24) (FES): 4.3 °C
- ΔTm MR24 (24) (JNK3): 3.7 °C
- ΔTm MR24 (24) (PIM1): 0.5 °C
- ΔTm MR24 (24) (BIKE): -0.4 °C
- ΔTm MR24 (24) (MARK4): 3.3 °C
- ΔTm MR24 (24) (MARK3): 5.8 °C
- ΔTm MR24 (24) (FGFR2): 0.8 °C

Compound: Cc1cccc(-c2ccc(-c3cc4cnc(NCCCN5CCOCC5)nc4n(CCCCN)c3=O)c(Cl)c2)n1 [compound 26, MR26]
- ΔTm MR26 (26) (NEK7): -0.7 °C
- ΔTm MR26 (26) (BMPR2): -0.2 °C
- ΔTm MR26 (26) (FES): 5.6 °C
- ΔTm MR26 (26) (JNK3): 1.1 °C
- ΔTm MR26 (26) (PIM1): 0.3 °C
- ΔTm MR26 (26) (BIKE): 0.7 °C
- ΔTm MR26 (26) (MARK4): 3.7 °C
- ΔTm MR26 (26) (MARK3): 5.4 °C
- ΔTm MR26 (26) (FGFR2): 1.4 °C
